# In ChEMBL document CHEMBL5375999, “Discovery of a Dual Tubulin and Neuropilin-1 (NRP1) Inhibitor with Potent In Vivo Anti-Tumor Activity via Pharmacophore-based Docking Screening, Structure Optimization, and Biological Evaluation” (J Med Chem, 2023):
# The source made the active and inactive calls. The rule behind the calls is not given here.
# How the values were obtained:
# [1] = biological target: Atypical kinase COQ8B, mitochondrial (Homo sapiens, UniProt Q96D53); experiment: Inhibition of ADCK4 (unknown origin)
# Sequence of Atypical kinase COQ8B, mitochondrial (Q96D53 whole entry): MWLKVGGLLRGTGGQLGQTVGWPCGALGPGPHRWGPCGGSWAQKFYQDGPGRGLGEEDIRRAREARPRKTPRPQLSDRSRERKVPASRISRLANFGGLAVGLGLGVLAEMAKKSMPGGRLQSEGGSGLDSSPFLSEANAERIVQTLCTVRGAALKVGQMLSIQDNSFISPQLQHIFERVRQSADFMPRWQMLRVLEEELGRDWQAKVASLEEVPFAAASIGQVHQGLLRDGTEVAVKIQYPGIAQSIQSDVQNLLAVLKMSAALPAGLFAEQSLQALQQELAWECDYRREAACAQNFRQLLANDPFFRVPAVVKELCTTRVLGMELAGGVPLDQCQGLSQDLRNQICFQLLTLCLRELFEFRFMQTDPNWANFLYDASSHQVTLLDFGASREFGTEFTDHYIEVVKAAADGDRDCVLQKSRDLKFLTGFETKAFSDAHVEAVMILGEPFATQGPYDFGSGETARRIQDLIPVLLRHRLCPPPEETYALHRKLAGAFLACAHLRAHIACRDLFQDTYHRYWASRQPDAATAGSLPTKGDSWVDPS
# [2] = biological target: Serine/threonine-protein kinase MAK (Homo sapiens, UniProt P20794); experiment: Inhibition of MAK (unknown origin)
# Sequence of Serine/threonine-protein kinase MAK (P20794 whole entry): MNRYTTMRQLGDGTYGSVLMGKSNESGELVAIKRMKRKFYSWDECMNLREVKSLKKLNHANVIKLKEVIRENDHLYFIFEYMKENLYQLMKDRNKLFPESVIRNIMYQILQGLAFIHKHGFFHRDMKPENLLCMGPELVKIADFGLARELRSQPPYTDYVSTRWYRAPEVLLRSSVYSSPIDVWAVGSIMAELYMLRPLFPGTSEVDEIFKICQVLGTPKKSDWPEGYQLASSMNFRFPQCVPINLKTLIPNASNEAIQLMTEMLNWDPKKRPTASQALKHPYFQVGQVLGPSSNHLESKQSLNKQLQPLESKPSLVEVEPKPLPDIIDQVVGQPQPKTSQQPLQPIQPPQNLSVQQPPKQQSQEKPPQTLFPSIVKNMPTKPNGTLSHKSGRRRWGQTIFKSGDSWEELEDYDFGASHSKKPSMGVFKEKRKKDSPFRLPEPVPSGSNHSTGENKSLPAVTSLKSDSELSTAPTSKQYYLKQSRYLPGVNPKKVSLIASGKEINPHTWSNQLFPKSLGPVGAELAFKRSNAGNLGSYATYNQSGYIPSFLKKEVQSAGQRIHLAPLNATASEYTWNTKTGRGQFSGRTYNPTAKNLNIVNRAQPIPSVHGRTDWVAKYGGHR
# [3] = biological target: Vascular endothelial growth factor receptor 2 (Homo sapiens, UniProt P35968); experiment: Inhibition of VEGF-induced VEGFR2 signal pathway in HUVECs assessed as reduction in p-VEGFR2 level; format: cell-based; conditions: HUVEC, dose 0.1-12.5 µM
# [4] = Toxicity in BALB/c mouse xenografted with human PC-3 cells assessed as change in heart morphology at 5 to 10 mg/kg, ip administered every 4 days for 20 days by H and E staining based inverted microscopic assay; format: organism-based; conditions: in vivo, 480 h, dose 5-10 mg/kg, time 20 day
# PC-3 [5] = experiment: Induction of apoptosis in human PC-3 cells assessed as late apoptotic cells at 0.1 uM by Annexin-V FITC staining based flow cytometry analysis (reference value: 1.67%); format: functional
# VCaP = experiment: Cytotoxicity against human VCaP cells assessed as inhibition of cell viability incubated for 48 hrs by MTT assay; format: functional, cell-based
# [6] = biological target: Cyclin-dependent kinase 5 (Homo sapiens, UniProt Q00535); experiment: Inhibition of CDK5 (unknown origin)
# Sequence of Cyclin-dependent kinase 5 (Q00535 whole entry): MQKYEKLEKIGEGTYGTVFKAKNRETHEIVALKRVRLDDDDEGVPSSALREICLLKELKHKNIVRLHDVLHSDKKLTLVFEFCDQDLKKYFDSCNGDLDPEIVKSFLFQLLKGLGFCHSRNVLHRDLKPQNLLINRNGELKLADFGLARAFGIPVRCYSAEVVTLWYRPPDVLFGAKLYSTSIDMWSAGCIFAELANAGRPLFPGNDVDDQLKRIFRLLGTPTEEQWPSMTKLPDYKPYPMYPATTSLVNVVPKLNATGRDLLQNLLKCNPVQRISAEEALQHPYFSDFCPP
# PC-3 [7] = experiment: Induction of cell cycle arrest in human PC-3 cells assessed as S phase cells at 2.5 uM by flow cytometry analysis (reference value: 2%); format: functional
# PC-3 [8] = experiment: Induction of apoptosis in human PC-3 cells assessed as necrotic cells at 0.1 uM by Annexin-V FITC staining based flow cytometry analysis (reference value: 0.059%); format: functional
# PC-3 [9] = experiment: Antiproliferative activity against human PC-3 cells assessed as inhibition of cell growth at 0.1 to 12.5 uM incubated for 48 hrs by EdU incorporation based assay; format: functional; conditions: dose 0.1-12.5 µM
# [10] = biological target: Cyclin-dependent kinase 9 (Homo sapiens, UniProt P50750); experiment: Inhibition of CDK9 (unknown origin)
# Sequence of Cyclin-dependent kinase 9 (P50750 whole entry): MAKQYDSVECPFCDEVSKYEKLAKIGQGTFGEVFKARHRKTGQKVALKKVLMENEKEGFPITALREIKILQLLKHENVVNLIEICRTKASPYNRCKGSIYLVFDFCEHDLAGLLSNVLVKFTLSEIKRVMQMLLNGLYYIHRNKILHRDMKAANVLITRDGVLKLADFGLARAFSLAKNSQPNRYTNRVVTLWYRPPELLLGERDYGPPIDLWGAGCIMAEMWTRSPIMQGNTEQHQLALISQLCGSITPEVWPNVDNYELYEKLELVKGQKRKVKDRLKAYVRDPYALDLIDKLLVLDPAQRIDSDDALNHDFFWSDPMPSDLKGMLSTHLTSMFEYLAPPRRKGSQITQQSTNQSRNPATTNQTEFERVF
# PC-3 [11] = experiment: Induction of cell cycle arrest in human PC-3 cells assessed as S phase cells at 12.5 uM by flow cytometry analysis (reference value: 2%); format: functional
# [12] = biological target: Serine/threonine-protein kinase PLK1 (Homo sapiens, UniProt P53350); experiment: Inhibition of PLK1 (unknown origin)
# [13] = biological target: Vascular endothelial growth factor A, long form (Homo sapiens, UniProt P15692); experiment: Inhibition of VEGF (unknown origin)
# Sequence of Vascular endothelial growth factor A, long form (P15692 whole entry): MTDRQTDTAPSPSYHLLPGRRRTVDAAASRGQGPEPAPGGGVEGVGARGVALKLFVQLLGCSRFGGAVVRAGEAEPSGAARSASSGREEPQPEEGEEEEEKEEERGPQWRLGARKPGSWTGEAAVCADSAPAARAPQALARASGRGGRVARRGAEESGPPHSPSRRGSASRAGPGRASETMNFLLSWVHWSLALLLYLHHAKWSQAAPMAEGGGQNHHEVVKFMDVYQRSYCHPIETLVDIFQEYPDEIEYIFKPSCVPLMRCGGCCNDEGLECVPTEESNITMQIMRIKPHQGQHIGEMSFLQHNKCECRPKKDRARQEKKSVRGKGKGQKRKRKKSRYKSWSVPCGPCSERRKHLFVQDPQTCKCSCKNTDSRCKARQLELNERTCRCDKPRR
# PC-3 [14] = experiment: Antiangiogenesis activity in human PC-3 cells assessed as appearance of scattered cells at 0.1 to 12.5 uM incubated for 8 to 15 hrs by matrigel based inverted microscopic analysis; format: functional, cell-based; conditions: dose 0.1-12.5 µM, time 8-15 hrs
# PC-3 [15] = experiment: Induction of cell cycle arrest in human PC-3 cells assessed as G0/G1 phase cells at 0.5 uM by flow cytometry analysis (reference value: 94.76%); format: functional
# PC-3 [16] = experiment: Antiangiogenesis activity in human PC-3 cells assessed as reduction in network formation by interconnected cells at 0.1 to 12.5 uM incubated for 8 to 15 hrs by matrigel based inverted microscopic analysis; format: functional, cell-based; conditions: dose 0.1-12.5 µM, time 8-15 hrs
# Tubulin (Homo sapiens) [17] = biological target: T1, Tubulin (Homo sapiens) (UniProt P68371+Q9H4B7+P0DPH7+P68366+Q13509+Q71U36+P04350+Q3ZCM7+P07437+P68363+Q9BQE3+Q6PEY2+Q13885+Q9BVA1+Q9BUF5); experiment: Inhibition of tubulin polymerization in human PC-3 cells assessed as nucleus disappearance at 2.5 to 12.5 uM incubated for 48 hrs by immunofluorescence assay; format: cell-based; conditions: dose 2.5-12.5 µM
# PC-3 [18] = experiment: Inhibition of colony formation in human PC-3 cells incubated for 10 days by crystal violet staining based assay; format: functional, cell-based; conditions: dose 0.1-12.5 µM, time 10.0 day
# [19] = biological target: Cytoplasmic tyrosine-protein kinase BMX (Homo sapiens, UniProt P51813); experiment: Inhibition of BMX (unknown origin)
# [20] = biological target: Epidermal growth factor receptor (Homo sapiens, UniProt P00533); experiment: Inhibition of EGFR (unknown origin)
# [21] = biological target: Cyclin-dependent kinase 8 (Homo sapiens, UniProt P49336); experiment: Inhibition of CDK8 (unknown origin)
# PC-3 [22] = experiment: Antitumor activity against human PC-3 cells xenografted in BALB/c nude mouse assessed as tumor disappearance at 10 mg/kg, ip administered every 4 days for 20 days; format: functional, organism-based; conditions: time 20.0 day
# PC-3 [23] = experiment: Induction of apoptosis in human PC-3 cells assessed as early apoptotic cells at 12.5 uM by Annexin-V FITC staining based flow cytometry analysis (reference value: 1.51%); format: functional
# [24] = biological target: Serine/threonine-protein kinase B-raf (Homo sapiens, UniProt P15056); experiment: Inhibition of BRAF (unknown origin)
# Sequence of Serine/threonine-protein kinase B-raf (P15056 whole entry): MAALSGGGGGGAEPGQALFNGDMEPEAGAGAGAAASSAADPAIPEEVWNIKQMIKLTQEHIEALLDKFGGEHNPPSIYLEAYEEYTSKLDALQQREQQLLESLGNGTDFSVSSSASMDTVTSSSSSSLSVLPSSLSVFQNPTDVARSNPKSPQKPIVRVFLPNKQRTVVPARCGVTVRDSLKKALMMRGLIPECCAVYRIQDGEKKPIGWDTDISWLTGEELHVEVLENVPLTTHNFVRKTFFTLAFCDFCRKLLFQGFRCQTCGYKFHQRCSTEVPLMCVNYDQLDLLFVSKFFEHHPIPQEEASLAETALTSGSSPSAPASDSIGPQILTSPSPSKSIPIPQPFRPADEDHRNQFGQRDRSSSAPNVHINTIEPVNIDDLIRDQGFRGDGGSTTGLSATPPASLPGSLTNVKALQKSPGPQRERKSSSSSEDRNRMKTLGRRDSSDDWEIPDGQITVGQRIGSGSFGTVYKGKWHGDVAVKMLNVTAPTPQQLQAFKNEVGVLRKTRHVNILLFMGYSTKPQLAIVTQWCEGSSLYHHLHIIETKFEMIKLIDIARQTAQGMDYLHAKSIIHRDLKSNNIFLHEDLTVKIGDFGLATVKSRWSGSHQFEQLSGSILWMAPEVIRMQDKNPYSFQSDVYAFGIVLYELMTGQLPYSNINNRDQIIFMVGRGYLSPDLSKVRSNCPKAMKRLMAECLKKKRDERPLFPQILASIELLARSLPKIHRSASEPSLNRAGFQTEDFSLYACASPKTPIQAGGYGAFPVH
# PC-3 [25] = experiment: Induction of apoptosis in human PC-3 cells assessed as necrotic cells at 12.5 uM by Annexin-V FITC staining based flow cytometry analysis (reference value: 0.059%); format: functional
# Tubulin (Homo sapiens) [26] = biological target: T1, Tubulin (Homo sapiens); experiment: Inhibition of tubulin polymerization in human PC-3 cells assessed as microtubule destruction at 2.5 to 12.5 uM incubated for 48 hrs by immunofluorescence assay; format: cell-based; conditions: dose 2.5-12.5 µM
# [27] = biological target: Serine/threonine-protein kinase 38 (Homo sapiens, UniProt Q15208); experiment: Inhibition of NDR1 (unknown origin)
# Sequence of Serine/threonine-protein kinase 38 (Q15208 whole entry): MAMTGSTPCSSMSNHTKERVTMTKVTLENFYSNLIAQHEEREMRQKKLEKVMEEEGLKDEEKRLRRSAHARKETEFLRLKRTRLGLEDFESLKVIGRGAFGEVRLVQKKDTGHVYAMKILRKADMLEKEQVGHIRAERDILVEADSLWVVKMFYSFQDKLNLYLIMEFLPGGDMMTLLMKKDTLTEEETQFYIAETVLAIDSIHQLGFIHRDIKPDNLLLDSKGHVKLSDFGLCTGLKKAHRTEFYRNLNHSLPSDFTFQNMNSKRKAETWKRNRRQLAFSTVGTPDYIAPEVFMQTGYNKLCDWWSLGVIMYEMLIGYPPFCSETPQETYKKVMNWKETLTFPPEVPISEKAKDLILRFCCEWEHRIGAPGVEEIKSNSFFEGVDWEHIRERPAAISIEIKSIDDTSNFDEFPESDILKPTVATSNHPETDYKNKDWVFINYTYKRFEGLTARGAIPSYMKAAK
# Tubulin (Homo sapiens) [28] = biological target: T1, Tubulin (Homo sapiens); experiment: Inhibition of tubulin polymerization (unknown origin) at 12 uM by spectrophotometric analysis relative to control; format: protein-complex assay
# PC-3 [29] = experiment: Antitumor activity against human PC-3 cells xenografted in BALB/c nude mouse assessed as reduction in tumor weight at 5 to 10 mg/kg, ip administered every 4 days for 20 days; format: functional, organism-based; conditions: dose 5-10 mg/kg, time 20.0 day
# Focal adhesion kinase 1 = Focal adhesion kinase 1 (Homo sapiens, UniProt Q05397); experiment: Inhibition of FAK (unknown origin)
# Sequence of Focal adhesion kinase 1 (Q05397 whole entry): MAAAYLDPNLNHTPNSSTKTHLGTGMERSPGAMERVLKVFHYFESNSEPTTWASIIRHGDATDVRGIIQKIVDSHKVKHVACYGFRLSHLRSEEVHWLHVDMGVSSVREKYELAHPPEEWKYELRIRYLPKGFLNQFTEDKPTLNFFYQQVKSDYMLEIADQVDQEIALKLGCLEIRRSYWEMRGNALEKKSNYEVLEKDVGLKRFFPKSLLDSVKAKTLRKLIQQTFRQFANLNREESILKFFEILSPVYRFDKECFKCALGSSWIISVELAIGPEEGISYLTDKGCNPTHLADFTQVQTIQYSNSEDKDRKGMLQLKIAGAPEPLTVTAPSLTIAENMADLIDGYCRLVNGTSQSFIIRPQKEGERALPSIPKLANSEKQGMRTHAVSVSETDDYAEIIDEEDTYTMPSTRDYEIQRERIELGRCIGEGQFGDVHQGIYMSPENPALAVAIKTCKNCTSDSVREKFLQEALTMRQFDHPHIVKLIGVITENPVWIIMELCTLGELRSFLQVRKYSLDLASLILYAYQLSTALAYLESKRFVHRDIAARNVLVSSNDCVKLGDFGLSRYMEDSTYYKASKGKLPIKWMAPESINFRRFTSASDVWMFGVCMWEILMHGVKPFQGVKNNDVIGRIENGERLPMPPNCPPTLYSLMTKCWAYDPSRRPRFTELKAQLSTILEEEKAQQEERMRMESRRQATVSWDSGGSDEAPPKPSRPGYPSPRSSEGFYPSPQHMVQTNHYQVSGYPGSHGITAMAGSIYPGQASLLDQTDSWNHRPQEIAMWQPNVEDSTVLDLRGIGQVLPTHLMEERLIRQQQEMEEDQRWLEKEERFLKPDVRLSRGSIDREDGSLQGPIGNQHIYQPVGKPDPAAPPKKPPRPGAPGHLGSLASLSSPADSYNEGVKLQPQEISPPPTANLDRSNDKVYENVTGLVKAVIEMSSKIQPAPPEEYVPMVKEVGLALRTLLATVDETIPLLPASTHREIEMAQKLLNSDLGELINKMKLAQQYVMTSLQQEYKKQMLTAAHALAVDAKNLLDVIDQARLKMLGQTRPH
# [30] = biological target: RAC-alpha serine/threonine-protein kinase (Homo sapiens, UniProt P31749); experiment: Inhibition of AKT1 (unknown origin)
# Sequence of RAC-alpha serine/threonine-protein kinase (P31749 whole entry): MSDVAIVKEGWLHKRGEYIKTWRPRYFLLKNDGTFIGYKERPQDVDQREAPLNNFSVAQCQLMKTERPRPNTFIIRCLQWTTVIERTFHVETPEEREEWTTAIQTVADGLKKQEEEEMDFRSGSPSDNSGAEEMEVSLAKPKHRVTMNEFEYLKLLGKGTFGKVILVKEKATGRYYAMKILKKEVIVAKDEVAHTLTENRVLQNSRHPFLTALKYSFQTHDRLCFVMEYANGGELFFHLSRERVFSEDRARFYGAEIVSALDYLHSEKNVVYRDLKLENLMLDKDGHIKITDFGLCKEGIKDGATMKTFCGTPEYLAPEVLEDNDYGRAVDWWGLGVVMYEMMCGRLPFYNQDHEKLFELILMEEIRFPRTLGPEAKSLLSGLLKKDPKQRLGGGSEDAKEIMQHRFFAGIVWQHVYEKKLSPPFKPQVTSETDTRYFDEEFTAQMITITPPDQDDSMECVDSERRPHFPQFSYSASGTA
# PC-3M-1E8 = experiment: Cytotoxicity against human PC-3M-1E8 cells assessed as inhibition of cell viability incubated for 48 hrs by MTT assay; format: functional, cell-based
# [31] = biological target: Phosphatidylinositol 4,5-bisphosphate 3-kinase catalytic subunit alpha isoform (Homo sapiens, UniProt P42336); experiment: Inhibition of PIK3CA (unknown origin)
# [32] = Toxicity in BALB/c mouse xenografted with human PC-3 cells assessed as change in kidney morphology at 5 to 10 mg/kg, ip administered every 4 days for 20 days by H and E staining based inverted microscopic assay; format: organism-based; conditions: in vivo, 480 h, dose 5-10 mg/kg, time 20 day
# Tubulin (Homo sapiens) [33] = biological target: T1, Tubulin (Homo sapiens); experiment: Inhibition of tubulin polymerization in human PC-3 cells assessed as cell shrinkage at 0.1 to 12.5 uM incubated for 48 hrs by immunofluorescence assay; format: cell-based; conditions: dose 0.1-12.5 µM
# PC-3 [34] = experiment: Induction of apoptosis in human PC-3 cells assessed as early apoptotic cells at 2.5 uM by Annexin-V FITC staining based flow cytometry analysis (reference value: 1.51%); format: functional
smiles,measurement,setting,value
COc1ccc(/C=C\c2cc(OC)c(OC)c(OC)c2)cc1NC(=O)CCC(=O)N[C@@H](CCCNC(=N)N)C(=O)O,IC50,[1],> 10 µM
same,IC50,[2],> 10 µM
same,inhibition,[3],Dose-Dependent Effect
same,Activity,[4],Non-Toxic
same,Activity,PC-3 [5],4.49%
same,Activity,VCaP,Active
same,IC50,[6],> 10 µM
same,Activity,PC-3 [7],3.67%
same,Activity,PC-3 [8],0.064%
same,Activity,PC-3 [9],Active
same,IC50,[10],> 10 µM
same,Activity,PC-3 [11],34.85%
same,IC50,[12],> 10 µM
same,IC50,[13],> 10 µM
same,Activity,PC-3 [14],Active
same,Activity,PC-3 [15],85.03%
same,Activity,PC-3 [16],Active
same,inhibition,Tubulin (Homo sapiens) [17],Active
same,inhibition,PC-3 [18],Dose-Dependent Effect
same,IC50,[19],> 10 µM
same,IC50,[20],> 10 µM
same,IC50,[21],> 10 µM
same,Activity,PC-3 [22],Active
same,Activity,PC-3 [23],4.55%
same,IC50,[24],> 10 µM
same,Activity,PC-3 [25],0.083%
same,inhibition,Tubulin (Homo sapiens) [26],Active
same,IC50,[27],> 10 µM
same,inhibition,Tubulin (Homo sapiens) [28],96%
same,Activity,PC-3 [29],Active
same,IC50,Focal adhesion kinase 1,> 10 µM
same,IC50,[30],> 10 µM
same,Activity,PC-3M-1E8,Active
same,IC50,[31],> 10 µM
same,Activity,[32],Non-Toxic
same,inhibition,Tubulin (Homo sapiens) [33],Active
same,Activity,PC-3 [34],3.63%
